Test results as given in patent US7553826B2, “Cytarabine monophosphate prodrugs” (Metabasis Therapeutics, Inc., priority 2002, dated 2009).
In brackets after ≈: the same amount, converted by molar mass. Each block holds one molecule with its values, some of them ahead of it.

Key:
[1] = Liver araCTP and liver targeting with continuous i.v. infusion in rats
From the text: A saline filled blunt PE-50 tubing catheter (Intramedic, Becton Dickinson, Sparks, Md.) was inserted into the jugular vein, exteriorized between the scapulae and connected to a swivel-tethering constant infusion system (Lomir Biomedical, Inc., Malone, N.Y. and Harvard Apparatus, Inc., South Natick, Mass.). The tubing was filled with heparinized saline and sealed, and the animals allowed to recover for one to seven days.
After the various durations of infusion the animals were anesthetized by intra-catheter injections of the anesthetic mix described above. Blood samples were obtained via cardiac puncture using a 23-gauge needle attached to a heparin coated 3 cc syringe.
(§1) In those studies, liver, plasma and bone marrow samples were obtained at necropsy to evaluate liver targeting.
(§2) Results are expressed as mean±standard error of the mean. When appropriate, AUC was calculated from time zero to the last time-point of the study. Liver targeting indices (LTIs) were calculated by dividing the liver araCTP AUC by the AUC for plasma araC (plasma LTI) or by the AUC for bone marrow araCTP (bone marrow LTI) for each compound. For the continuous infusion studies, the steady state araCTP levels were divided by the steady state plasma araC levels.

[2] = Single dose i.p. bolus liver levels / liver targeting in mice; details: for reduction of peripheral exposure (liver targeting): administered intraperitoneally
Procedure: At specified times post injection, mice were anesthetized and exsanguinated via cardiac puncture. The whole liver was removed, and snap-frozen in liquid nitrogen, and homogenized using a Polytron homogenizer PT 10/35 (Brinkmann Instruments, Westbury, N.Y.) in 3 volumes of 10% (v/v) perchloric acid (PCA). After a 5 min centrifugation at 2,500×g, 1 mL of supernatant was neutralized using 0.3 mL 3 M KOH/3 M KHCO3 and mixed thoroughly. Samples were then centrifuged for 5 minutes and resulting supernatants were treated with periodate in order to remove endogenous ribonucleotides which otherwise might interfere with araCTP detection. […] Resulting samples were analyzed by HPLC as described below.
To measure bone marrow araCTP, the bone marrow samples were flushed from the marrow cavities of femurs with 1.2 ml saline into pre-weighed Eppendorf tubes. After centrifugation for 20-30 seconds (Eppendorf microfuge, 14,000 rpm) and removal of the supernatant, 12 volumes of 3% PCA (v/v) were added to the bone marrow cell pellets. Samples were then vortexed until the pellet was well dissolved and centrifuged as above for 10 min. Ninety μL of extracted supernatant was neutralized to pH 7-8 using 30 μL 1 M KOH/1 M KHCO3 and again centrifuged. Resulting supernatants were periodate-treated as above.
Samples (50 μL) were injected onto the column in 70% 10 mM ammonium phosphate buffer and 30% 1 M ammonium phosphate buffer, both at pH 3.5 and containing 6% ethanol. […] A standard curve was prepared by adding known amounts of araCTP into PCA extracts from control liver or bone marrow prior to neutralizing, and preparing HPLC samples accordingly.
To obtain plasma, blood was transferred to heparinized micro-collection tubes and centrifuged in an Eppendorf microfuge at 14,000 rpm for 2 minutes. Resulting plasma was collected, placed on dry ice, and subsequently stored at −20° C. On the day of analysis, proteins were precipitated by adding 1 mL acetonitrile to 100 μL of plasma. After 10 min centrifugation (Eppendorf microfuge, 14,000 rpm), the supernatant was removed and dried in a Savant SpeedVac Plus SC110A. Samples were reconstituted with 110 μL of mobile phase buffer (20 mM KH2PO4, pH 4.5), sonicated for 5 min, and centrifuged for 30 seconds. […] AraC and prodrugs were detected by absorbance at 280 nm and quantitated using standard curves obtained with spiked plasma samples processed as above.
Results are expressed as mean±standard error of the mean. Data were analyzed by repeated measures ANOVA, followed by the Tukey HSD post-hoc test for comparisons at individual time points when appropriate. A p-value of less than 0.05 was considered statistically significant. Dotted lines in figures indicate LOQ (limit of quantitation) using the indicated HPLC method.
as §1, §2

Aqueous stability = format: physicochemical; details: 50 μM
Procedure: Diluted solutions (50 μM) were incubated at 37° C. in a Fisher Scientific dry bath incubator (catalog # 11-718-2) with samples collected every 24 hours and stored at −80° C. Plasma samples (100 μL) were quenched with 1 mL of acetonitrile. […] Samples were resuspended in 120 μL of mobile phase buffer before HPLC injection.
Samples were analyzed on an HP1090 or HP1100 (Hewlett Packard) HPLC using a C-18 Alltech Econosphere column, 150 mm×4.6 mm (catalog # 70065), with a C-18 Alltech Econosphere guard column, 7.5 mm×4.6 mm (catalog # 96121). Samples were eluted with a methanol gradient: 0% for 5 minutes, then increasing to 10% at 10 minutes, 30% at 20 minutes, and 60% at 25 minutes. The column was allowed to equilibrate in 0% methanol for 10 minutes before the next injection. The flow rate was 1 mL/minute with a column temperature of 40° C. Prodrugs eluted around 19.5 minutes and were monitored by UV absorbance at 280 nm. For prodrugs in aqueous conditions, the same method was employed except the methanol gradient was as follows: 0% for 5 minutes, increasing to 10% at 10 minutes, and 30% at 20 minutes with prodrug eluting around 20 minutes.

Solubility = format: physicochemical
Procedure: With each of the three buffer systems, saturating solutions of Compound A and Compound B were prepared as follows. […] The resultant vials were sealed and equilibrated by tumbling at 25° C. for a minimum of 24 h. At the end of the incubation period, prodrug that was not in solution was removed from the samples by filtration through a 0.45 μm pore size nylon syringe filter. These diluted samples were assayed by the HPLC method of example E.

human liver microsomes = assay: Enzyme kinetics of prodrug activation to araCMP in human liver microsomes; details: activation to araCMP
[3] = Plasma stability in human plasma; format: in vitro ADME
Procedure: Male- and female-pooled human plasma (Bioreclamation Inc., Hickville, N.Y., catalog # […], lot # BRH02236) containing heparin as anticoagulant, pH of all plasma aliquots was 8.3. […] Samples (100 μL) were quenched with 1 mL of acetonitrile. […] Samples were resuspended in 120 μL of mobile phase buffer before HPLC analysis. For plasma samples, 40 μL or 50 μL samples were injected onto the column described in Example E with mobile phase buffer, 20 mM potassium phosphate buffer, pH 6.2 (Fisher Scientific, catalog # P261-1, various lots). All other HPLC analysis was performed as described in Example E.

[4] = Mouse 5-day safety pharmacology; format: in vivo; details: mice; for histopathology of liver, kidney and small intestine: 100 mg/kg araC or 1000 mg/kg CE Compound C; for red blood cell parameters (erythrocyte numbers, hematocrit, hemoglobin): 5 days i.p.; for red blood cell parameters (erythrocyte numbers, hematocrit, hemoglobin) / Glucose: araC 30 and 100 mg/kg/day; for effect on body weight: daily i.p. 5 days, highest dose: araC 100 mg/kg/day; for Glucose: Compound C 1000 mg/kg/day
Procedure: AraC was purchased from Sigma Chemical Co. (St. Louis, Mo., catalog # C1768, lot # 39H5962). Compound C and araC were dissolved in sterile physiological saline. Stock solutions were prepared daily from pre-weighed drug. All but the highest concentrations were prepared by diluting the stock solutions using additional sterile saline. Any drug not used immediately was refrigerated and used within 24 hours. All prodrugs were dosed in cytarabine molar equivalents (CE).
Male NIH Swiss Webster mice (25 to 33 g body weight, Harlan Sprague Dawley, Indianapolis, Ind.) were injected i.p. with Compound C, araC or vehicle once a day on days 0-4, approximately 3 to 4 hours following the beginning of the vivarium light cycle. Doses for Compound C were 1000, 300, 100 and 30-mg/kg nucleoside equivalents/day (equal to 1848, 554, 185 and 55.4 mg/kg/day) whereas araC was administered at 100, 30, 10 and 3 mg/kg/day. The vehicle was saline. Body weights were recorded on days 0-4 immediately prior to compound administration and on day 5 prior to sacrifice. All mice were sacrificed on day 5 (23-25 hours following the last i.p. dose) by exsanguination under halothane anesthesia, and subsequent cervical dislocation. The blood from each animal was analyzed for blood chemistry and hematology parameters as described in Example H. Livers were excised and fixed in neutral-buffered 10% formalin, and bone marrow was flushed from the right femur using 1 ml PBS without calcium or magnesium and nucleated cell counts measured as in Example H.
EDTA-treated blood samples were submitted to LabCorp (LabCorp, San Diego, Calif.) for hematology analysis including erythrocyte and platelet numbers, hemoglobin, and hematocrit. Serum chemistry analysis was also performed by LabCorp. Tissue specimens from mice treated with vehicle or 100 mg/kg araC or 1000 mg/kg CE Compound C were coded and shipped in formalin to Comparative Biosciences (Mountain View, Calif.) for preparation of hematoxylin/eosin-stained tissue sections and histopathology evaluation. Specimen codes for the histopathology studies were: #1-7, Compound C 1000 mg/kg/day; #33-40, araC 100 mg/kg/day; #65-72, Saline vehicle.
Results are expressed as mean±standard error for 5-8 animals per dose group. For selected hematology parameters, data for each animal were also presented as a % of the mean of the vehicle group. Statistical analysis was performed by one-way ANOVA followed by Dunnett's post-hoc test for differences between a control group and multiple dose groups. A p-value of less than 0.05 was considered statistically significant.

[5] = rats, 200 mg CE/kg/day continuous intravenous infusion
[6] = Compound C 1000 mg/kg/day of nucleoside equivalents

Structure (SMILES): Nc1ccn([C@@H]2O[C@H](CO[P@]3(=O)OCC[C@H](c4ccncc4)O3)[C@@H](O)[C@@H]2O)c(=O)n1 [Compound B, 2(1H)-Pyrimidinone, 4-amino-1-[5-O-[(2S,4R)-2-oxido-4-(4-pyridinyl)-1,3,2-dioxaphosphorinan-2-yl]-β-D-arabinofuranosyl]]
reduction of peripheral exposure (liver targeting) ([1]; administered by continuous intravenous infusion): ~10 fold | LTI @ 24 hrs (Liver/plasma) [1, 5]: >12 nmol/g/μM | Liver araCTP 24 hr [1, 5]: 5.9 nmol/g | Liver araCTP @ 4 hr [1, 5]: 6.4 nmol/g | Plasma Prodrug steady state [1, 5]: 25 to 35 µM | Plasma araC steady state [1, 5]: <0.5 µM | liver araCTP compared with Compound A ([1]; rats, continuous infusion 200 mg/kg/24 hours CE): less araCTP in the liver than Compound A | Liver araCTP Peak @ 1 hr ([2]; Mouse, 100 mg (cytarabine equivalents)/kg single IP injection): 27 nmol/g | LTI (Liver/plasma) ([2]; Mouse, 100 mg CE/kg single IP, liver araCTP AUC / plasma araC AUC): 19.6 nmol/g/μM | reduction of peripheral exposure (liver targeting) [2]: ~20 fold | liver araCTP peak at 60 minutes post injection ([2]; mice, single i.p. bolus, 100 mg/kg CE): 27.00 ± 4.04 nmol/g | t90 in aqueous solution (Aqueous stability; 100 mM Pi, pH 7.4, 37° C): 4 days | t90 in aqueous solution (Aqueous stability; 100 mM citrate, pH5.0, 37° C): 1.7 days | solubility (Solubility; 0.5 M Pi pH 8.0 buffer, 25° C): 10.2 mg/mL (≈ 23.2 mM) | solubility (Solubility; 0.5 M citrate pH 4.0, 25° C): 94.6 mg/mL (≈ 215 mM) | solubility (Solubility; 0.5 M citrate pH 7.0, 25° C): 9.0 mg/mL (≈ 20.4 mM) | Vmax (human liver microsomes; 2 mg/mL human liver microsomes lot RQX, 1 mM NADPH, pH 7.4, 37° C, 5 min): 0.13 ± 0.02 nmol/min/mg | Km (human liver microsomes; human liver microsomes lot RQX): 3.13 ± 0.51 mM

Structure (SMILES): Nc1ccn([C@@H]2O[C@H](COP3(=O)OCCC(c4ccncc4)O3)[C@@H](O)[C@@H]2O)c(=O)n1 (relative stereo) [Compound C, 2(1H)-Pyrimidinone, 4-amino-1-[5-O-cis-[2-oxido-4-(4-pyridinyl)-1,3,2-dioxaphosphorinan-2-yl]-β-D-arabinofuranosyl]]
reduction of peripheral exposure (liver targeting) ([1]; rat, in vivo, iv): ~10 fold | half-lives in human plasma [3]: > 1 days | reduction of peripheral exposure (liver targeting) [2]: ~20 fold | histopathology of liver, kidney and small intestine [4]: no toxicologically relevant histopathologic changes | hepatotoxicity ([4]; 5-day repeated dose): No hepatotoxicity was observed | safety relative to araC in terms of hematologic endpoints ([4]; 5-day repeated dose): ≥ 30 fold | red blood cell parameters (erythrocyte numbers, hematocrit, hemoglobin) [4]: similarly affected these parameters, but at ten-fold higher doses | dose required to reduce nucleated bone marrow cells, relative to araC [4, 6]: 30 fold | PMN, mononuclear cell, or platelet numbers ([4]; any dose (30-1000 mg/kg/day CE) i.p. for 5 days): did not affect | effect on body weight [4, 6]: no significant effect | Glucose [4]: lowered

Plasma araC steady state ([1]; rats, AraC at 2000 mg/kg/day continuous infusion): ~300 µM | AUC(0-t) ([2]; male, Swiss Webster, mouse, plasma, ip, 100 mg (cytarabine equivalents)/kg): 121 µM·h
Structure (SMILES): Nc1ccn([C@@H]2O[C@H](CO)[C@@H](O)[C@@H]2O)c(=O)n1 [AraC, 1-(β-D-Arabinofuranosyl)cytosine]
histopathology of liver, kidney and small intestine [4]: no toxicologically relevant histopathologic changes | hepatotoxicity ([4]; 5-day repeated dose): No hepatotoxicity was observed | number of nucleated bone marrow cells, circulating PMNs, mononuclear cells, and platelets ([4]; 30 and 100 mg/kg/day i.p. for 5 days): significantly decreased | red blood cell parameters (erythrocyte numbers, hematocrit, hemoglobin) [4]: lowered erythrocyte numbers, hematocrit, and hemoglobin significantly | Creatinine ([4]; araC 100 mg/kg/day): lowered | bone-marrow cellularity, % of that in vehicle-treated animals ([4]; araC 100 mg/kg/day i.p. for 5 days): 11% | effect on body weight [4, 6]: progressive and statistically significant drop in body weight | Alkaline phosphatase ([4]; highest dose of araC (100 mg/kg/day)): significantly decreased | Glucose [4]: lowered
